Marks after values point to notes of the source that are not given here.

Data set [1] in a line: Iron concentration in plasma of young pigs after FeSO4 or FeSO4/AKG infusion to the duodenum or pelvic intestine. The class given is in vivo. As to the method: (§1) Investigations were performed on 3 piglets of the Swedish race Landrace weighting 30-35 kg. Animals originated from the university herd (Swedish Agricultural University, Dept. of Agricultural Biosystems and Technology, Lund). Young pigs were fed 2 times a day at the same time (9:00-10:00 a.m. and 3:00-4:00 p.m.) with a standard fodder (Vaxfor, Lantmanen, Sweden) with a daily dose 50 g/kg body weight. They were watered ad libitum. Animals were held separately in boxes with automatically regulated 12 hour's periods of day and night.
(§2) Sterile catheters and T-fistulas used in the experience were made of silicone tubes with maintained medical standards (Dow Cornning). Piglets were starved for 9-12 hours before the operation. Before the operation animals received a sedative drug—azoperone (Stresnil, 2 mg/kg body weight). Then the inhalation induction of general anaesthesia was performed (Fluothan 0.5-1.5 vol %). […] With the catheters inserted to the portal vein and the common carotid-artery the blood samples for later analyses were collected.
Two incisions were done: one 10-15 cm close to the right hunger fossa, second 2-3 cm between the brachial joint and the angle of the mandible. Duodenal fistula was placed behind the opening of the pancreatic duct to the duodenum. Pelvic T-fistula (int. diameter 3.18 mm and ext. diameter 4.64 mm—both fistulas) was introduced to the pelvic intestine at the end of the caeco-iliac ligament.
The catheter to the portal vein (int. diameter 0.64 mm and ext. diameter 1.19 mm) was introduced through the liver and fixed with several sutures (0-2 Catgut, Ethicon, England). The catheter placed in portal vein and both intestinal fistulas were brought out the body in the line of incision. After dissection of zygomatic vein the catheter was introduced in the cardiac direction on the depth of 7 cm. The vein was closed with the double ligature (0-3 silicone-, Ethicon, England) and brought outside the body with the surgical needle in the dorsal part of the neck. The abdomen and the neck wounds were closed with two layers of sutures: the peritoneum (only in the abdomen wound) and muscles were closed with twisted suture (0-0 Catgut , Ethicon), the skin was closed with the interrupted sutures (Suturamid 2-0, Ethicon). After operation young pigs were placed in separate boxes. During 5 postoperative days animals were fed twice a day, they received water ad libitum. The operation was performed by the skilled surgeon in accordance with surgical techniques.
Before infusion animals were starved. The daily dose of food was given during evening feeding at 3:00 p.m. All infusions were started at 9:00 a.m. Blood samples were taken 30 minutes before and 15, 30, 60 and 120 minutes after the infusion. 2. Infusions composition.

Data set [2] can be described thus: AKG concentration in plasma of young pigs after AKG or FeSO4/AKG infusion to the duodenum or pelvic intestine. The data set is classed as in vivo. The conditions noted are these: FeSO4 infused with AKG. As to the method: as §1, §2
Two incisions were done: one 10-15 cm close to the right hunger fossa, second 2-3 cm between the brachial joint and the angle of the mandible. Duodenal fistula was placed behind the opening of the pancreatic duct to the duodenum. […]

In the case of `O=S(=O)([O-])[O-].[Fe+2]` [FeSO4], the “iron concentration in plasma” value in data set [1] (infusion to pelvic intestine, portal vein, 15 min) is 18.00 ± 5.41^a μmol/l; in data set [1] (infusion to pelvic intestine, portal vein, 30 min), 17.67 ± 6.53^a μmol/l; in data set [1] (infusion to pelvic intestine, portal vein, 60 min), 16.83 ± 6.81^a μmol/l; in data set [1] (infusion to pelvic intestine, portal vein, 120 min), 15.33 ± 7.18^a μmol/l; in data set [1] (infusion to pelvic intestine, portal vein, -30 min (before infusion)), 19.17 ± 8.69^a μmol/l; in data set [1] (infusion to pelvic intestine, zygomatic vein, 15 min), 18.83 ± 6.81^a μmol/l. For the same compound, the “iron concentration in plasma” value was 18.83 ± 6.81^a μmol/l in data set [1] (infusion to pelvic intestine, zygomatic vein, 30 min); 18.00 ± 7.47^a μmol/l in data set [1] (infusion to pelvic intestine, zygomatic vein, 60 min); 15.67 ± 6.43^a μmol/l in data set [1] (infusion to pelvic intestine, zygomatic vein, 120 min); 19.67 ± 7.97^a μmol/l in data set [1] (infusion to pelvic intestine, zygomatic vein, -30 min (before infusion)); 28.5 ± 4.09^b μmol/l in data set [1] (infusion to the duodenum, portal vein, 15 min); 37.67 ± 5.3^cb μmol/l in data set [1] (infusion to the duodenum, portal vein, 30 min). Besides, the “iron concentration in plasma” value was 40.17 ± 4.62^c μmol/l in data set [1] (infusion to the duodenum, portal vein, 60 min); 37.17 ± 4.37^c μmol/l in data set [1] (infusion to the duodenum, portal vein, 120 min); 16.33 ± 1.04^a μmol/l in data set [1] (infusion to the duodenum, portal vein, -30 min (before infusion)); 29.17 ± 5.51^b μmol/l in data set [1] (infusion to the duodenum, zygomatic vein, 15 min); 39.50 ± 4.09^c μmol/l in data set [1] (infusion to the duodenum, zygomatic vein, 30 min); 43.0 ± 4.82^c μmol/l in data set [1] (infusion to the duodenum, zygomatic vein, 60 min). Besides, the “iron concentration in plasma” value in data set [1] (infusion to the duodenum, zygomatic vein, 120 min) is 39.5 ± 3.5^c μmol/l; in data set [1] (infusion to the duodenum, zygomatic vein, -30 min (before infusion)), 18.2 ± 1.53^a μmol/l. For the same compound, the “effect on absorption of AKG from the intestine into the blood” value in data set [2] was “increases the absorption of AKG from the intestine into the blood”.

Values taken from patent US20090238895A1, “NUTRITIONAL AND/OR PHARMACEUTICAL PREPARATION FOR USE IN PROPHYLAXIS AND TREATMENT OF DISTURBANCES IN MICROELEMENTS ABSORPTION FROM THE ALIMENTARY CANAL” (priority 2004, published 2009).
